Marks after values point to notes of the source that are not given here.
Columns and labels:
[1] = Nitroxyl radical decay rate in tissues, from change in MRI contrast over time; format: in vivo, mice; details: for Decay Rate: MRI, mean ± SD
Experimental: In the inventive method, the amount of reduced nitroxyl contrast agent (i.e., hydroxylamine) in the animal tissue is determined. This determination can be made using any suitable method. For example, MRI contrast changes and the difference in concentration of a nitroxyl contrast agent, such as 3CP, show linearity in low concentration level (i.e., below 1.5 mM). To perform T1 and T2 mapping, spin echo images can be obtained using a multi-slice multi-echo (MSME) sequence. For instance, a time sequence of the total number of SPGR images may be determined. The images can then be averaged and each image may be divided by the averaged initial image. Semi-logarithmic values of the averaged image intensity in a given region of interest can be plotted versus time after injection. The change in intensity can be determined at one or more time points after injection of a nitroxyl contrast agent. For example, changes in intensity may be made every 10 s, 20 s, 30, 40 s, 50 s, or every 1, 5, 7, 10, 15, 20 minutes, or any integer in between, after injection of a nitroxyl contrast agent. A decay rate can be obtained from the linear part of the slope after peak by the least squares method. A sample calculation of a decay rate using nitroxyl contrast agent 3CP is as follows: The spoiled gradient echo (SPGR) image intensity Mt at time t after nitroxyl contrast agent injection can be calculated using the equation:
Mt=M0×[1−EXP(−TR/T1t)]×EXP(−TE/T2)×{sin α/[1−cos α×EXP(−TR/T1t)]}.
In the above equation, MO is proton density, and a is flip angle. Tissue (or sample) T1 can change with particular time t (min.) (T1t) depending on the concentration of the 3CP (Ct). T1t[…]1/R1t and R1t=1/T1i+r1×Ct, where R1t is T1 relaxation […] t, the relaxivity r1 of 3CP is 0.17 mM^−1s-1, T1i is the initial T1 base line (intrinsic tissue T1). Ct (mM), which is the first concentration of 3CP at particular time t (min.), is calculated by assuming first order decay as indicated by the equation Ct=Cmax×EXP([…]), where ktrue is the given decay rate. Logarithmic values of the intensity change from the baseline (ie. ΔM % t=(Mt/Mi−1)×100 or ΔMt=Mt−Mi), can be plotted with time t. Mi is the intrinsic signal intensity of the tissue (or sample) calculated as Ct=0. The decay constant kMRI can be obtained from the slopes of the plots ΔM % t and ΔMt by least square fit.
Typical decay rates, determined by a change in intensity over time, are shown in Table 1 and FIG. 1 for nitroxyl contrast agents Tempol, Carbamoyl-PROXYL, Carboxyl-PROXYL in normal tissue, tumor, blood, and left and right kidney tissues. These decay rates may then be used to determine the redox status of the tissue. When a decay rate is calculated pixel-wise, redox mapping can be obtained. That is, regions showing a faster rate of decay correspond to hypoxic regions.

[2] = Relaxation time and relaxivity of nitroxyl contrast agents compared with Gd-DTPA; format: physicochemical
Source text: The present invention is predicated on the difference in reducing capability and provides a method of determining the redox status of a region of interest in an animal tissue, such as a tumor. By determining the redox status of a tumor it is possible to not only diagnose a tumor due to its enhanced reduction of intracellular nitroxide contrast agent, but also to determine appropriate radiation treatment fields spatially to deliver therapeutic doses of radiation, and to determine appropriate timing sequences after the administration of a nitroxide contrast agent such that the maximum difference between normal and tumor tissue with respect to the radioprotective form of the nitroxide is present in the normal tissue, thereby limiting collateral damage to the normal tissue. The T1-contrast afforded by the nitroxide class of compounds, by virtue of their paramagnetic relaxivity which is in the range of 0.2 (mM s)−1 makes it possible to use standard MRI scanners to obtain the redox information in the inventive method. Typical relaxivity and relaxation times are shown for various nitroxyl contrast agents compared with a standard contrast agent, Gd-DTPA, in Table 1. […] Without being bound to any particular theory, it is believed that the T1 relaxation of protons could be affected by paramagnetic electron spin. Therefore, a change of MRI contrast before and after administration of a nitroxyl spin probe (i.e., a nitroxide contrast agent) should reflect the amount of nitroxyl in addition to providing anatomical mapping simultaneously. Such anatomical mapping provides the ability to diagnose the existence of a tumor, determine the status of a tumor, determine borders of a radiation treatment field, determine appropriate timing and dosage for radiation treatment, as well as determining the efficacy of radiation and other forms of cancer treatment.

[3] = Decay rate of nitroxyl contrast agent by in vivo 700 MHz EPR spectroscopy with surface coil (EPRS); set-up: species or system C3H mice; details: linear part 7.5-20 min, mean ± SD
Experimental: (§1) Female C3H mice were supplied by the Frederick Cancer Research Center, Animal Production (Frederick, Md.). Animals, received at six weeks of age, were housed five per cage in climate controlled circadian rhythm-adjusted rooms and were allowed food and water ad libitum. Experiments were carried out in compliance with the Guide for the Care and Use of Laboratory Animal Resources (1996), National Research Council, and approved by the National Cancer Institute Animal Care and Use Committee. Experiments were performed within 4 weeks of their arrival at the facility. Their body weight measured before the experiments was in the range 25-28 g. A squamous cell carcinoma was implanted and grown on the right hind leg for a week.
In vivo EPR spectroscopic measurement of the nitroxyl probe were obtained. Mice were anesthetized and placed on special mouse holder and fixed with adhesive tapes. The single loop surface coil (7.3 mm i.d.) was placed on the normal or the tumor leg. EPR signal was measured by CW EPR at 700 MHz. EPR conditions were as follows: microwave frequency=700 MHz, microwave power=10 mW, field modulation frequency=13.5 kHz, field modulation amplitude=0.3 Gauss, time constant=0.03 s, sweep width=60 Gauss, scan time=8 s. The center line of the triplet was repeatedly obtained every 20 s for 20 min. […]

[4] = Decay rate of nitroxyl contrast agent by 300 MHz CW EPR imaging (EPRI); format: in vivo, C3H mice; details: 1.8 μmol/g b.w. i.v., mean ± SD
Experimental: as §1
Mice were anesthetized by isoflurane (1.5%) in medical air (700 mL/min). Both tumor and normal legs were placed on special mouse holder and fixed with adhesive tapes on the divider between both legs. […]
(§2) The EPRI and MRI data were analyzed using the ImageJ software package (a public domain Java image processing program inspired by NIH Image that can be extended by plug-ins, http://rsb.info.nih.gov/ij/). T1 and T2 mappings were calculated using a plug-in (MRI analysis calculator, Karl Schmidt, HypX Laboratory, Brigham and Women's Hospital) available in ImageJ.
A time course of CW EPR imaging after injection of a nitroxyl contrast agent was determined. […]

[5] = Decay rate of nitroxyl contrast agent by 4.7 T SPGR T1-weighted MRI; format: in vivo, C3H mice; details: 1.5 μmol/g b.w. i.v., mean ± SD
Experimental: as §1
MRI and pulse sequence measurements were also obtained. MRI measurements were performed at 4.7 T controlled with ParaVision®3.0.1 (Bruker BioSpin MRI GmbH, Rheinstetten, Germany). […]
as §2, with “ImageJ. […]” for “ImageJ.”

Compound	Decay Rate ([1]; Blood) [min⁻¹]	Decay Rate ([1]; Left Kidney) [min⁻¹]	Decay Rate ([1]; Normal Leg) [min⁻¹]	Decay Rate ([1]; Right Kidney) [min⁻¹]	Decay Rate ([1]; Tumor Leg)	rate of decay, tumor versus normal tissue ([1]; in vivo MRI, FIG. 2)	Relaxivity [2] [mM⁻¹ s⁻¹]	Normal Leg Decay Rate ([3]; normal leg) [min⁻¹]	Tumor Leg Decay Rate ([3]; squamous cell carcinoma leg)	relaxivity r1 ([2]; value used in sample decay-rate calculation) [mM⁻¹ s⁻¹]	Normal Leg Decay Rate ([4]; normal leg) [min⁻¹]	Tumor Leg Decay Rate ([4]; squamous cell carcinoma leg) [min⁻¹]	Normal Leg Decay Rate ([5]; normal leg) [min⁻¹]	Tumor Leg Decay Rate ([5]; squamous cell carcinoma leg)
CC1(C)CC(O)CC(C)(C)N1[O] [Tempol, 2,2,6,6-tetramethyl-4-piperidinol-N-oxyl]	1.025 ± 0.213	1.470 ± 0.199	0.319 ± 0.025	1.160 ± 0.333	1.095 ± 0.203** min^−1	greater in tumor versus normal tissue	–	–	–	–	–	–	–	–
CC1(C)CC(C(=O)O)C(C)(C)N1[O] (stereo not drawn) [Carboxy-PROXYL]	–	–	–	–	–	–	0.180	–	–	–	–	–	–	–
CC1(C)CC(C(N)=O)C(C)(C)N1[O] (stereo not drawn) [Carbamoyl-PROXYL, 3-carbamoyl-2,2,5,5-tetramethyl-1-pyrrolidine-N-oxyl]	–	–	–	–	–	–	0.171	0.0551 ± 0.0059	0.0669 ± 0.0144* min^−1	0.17	0.0356 ± 0.0122	0.0468 ± 0.0086	0.0766 ± 0.0070	0.1073 ± 0.0057* min^−1
